Experiments:
[1] = Cmax in patient with severe burns at 1 g, iv; type: ADME, organism-based; parameters: dose 1 g, route intravenous; settings: human, in vivo
[2] = Plasma protein binding in healthy human at 1 g, iv; type: ADME, cell-free; settings: read-out: PPB (converted)
Homo sapiens [3] = experiment: Clearance in healthy human at 1 g, iv; settings: in vivo
[4] = Renal clearance in healthy human at 1 g, iv; type: ADME, organism-based, Kidney; settings: in vivo, read-out: CL_renal
[5] = Cmax in healthy human at 1 g, iv; type: ADME, organism-based; parameters: dose 1 g, route intravenous; settings: in vivo
Homo sapiens [6] = experiment: AUC (0 to infinity) in healthy human at 1 g, iv; type: ADME, organism-based, Plasma; parameters: dose 1 g, time infinity, route intravenous; settings: in vivo
Homo sapiens [7] = experiment: AUC (0 to infinity) in patient with severe burns at 1 g, iv; type: ADME, organism-based, Plasma; parameters: dose 1 g, time infinity, route intravenous; settings: in vivo
[8] = Plasma protein binding in patient with severe burns at 1 g, iv; type: ADME, cell-free; settings: human, read-out: PPB (converted)
[9] = Terminal half life in healthy human at 1 g, iv; type: ADME, organism-based; settings: in vivo, read-out: beta t1/2 (converted)
Homo sapiens [10] = experiment: Clearance in patient with severe burns at 1 g, iv; settings: in vivo
[11] = Half life in healthy human at 1 g, iv; type: ADME, organism-based; settings: in vivo
[12] = Mean residence time in healthy human at 1 g, iv; type: ADME, organism-based; settings: in vivo
[13] = Half life in patient with severe burns at 1 g, iv; type: ADME, organism-based; settings: human, in vivo
[14] = Volume of distribution at steady state in healthy human at 1 g, iv; type: ADME, organism-based; settings: in vivo, read-out: Vdss
[15] = Mean residence time in patient with severe burns at 1 g, iv; type: ADME, organism-based; settings: human, in vivo
[16] = Terminal half life in patient with severe burns at 1 g, iv; type: ADME, organism-based; settings: human, in vivo, read-out: beta t1/2 (converted)
[17] = Renal clearance in patient with severe burns at 1 g, iv; type: ADME, organism-based, Kidney; settings: human, in vivo, read-out: CL_renal
[18] = Volume of distribution at steady state in patient with severe burns at 1 g, iv; type: ADME, organism-based; settings: human, in vivo, read-out: Vdss

Cmax [1]: 38700 ng/mL
fraction unbound [2]: 0.29
CL (Homo sapiens [3]): 26.3 mL/min/kg
CL renal [4]: 98 mL/min
Cmax [5]: 21300 ng/mL
AUC (Homo sapiens [6]): 9890 ng·h/mL
AUC (Homo sapiens [7]): 12000 ng·h/mL
fraction unbound [8]: 0.41
half-life [9]: 44.4 min
CL (Homo sapiens [10]): 19.8 mL/min/kg
half-life [11]: 15.6 min
MRT [12]: 22.8 min
half-life [13]: 24.6 min
Vd [14]: 0.6 L/kg
MRT [15]: 35.4 min
half-life [16]: 54.6 min
CL renal [17]: 148 mL/min
Vd [18]: 0.63 L/kg
Structure (SMILES): CC(=O)OCC1=C(C(=O)O)N2C(=O)[C@@H](NC(=O)Cc3cccs3)[C@H]2SC1 [CEPHALOTHIN]

From ChEMBL document CHEMBL1649272, “Unbound cephalothin pharmacokinetics in adult burn patients are related to the elapsed time after injury” (Antimicrob Agents Chemother, 2009)
